Article PMC8429736, “Pharmacological characterization of mutant huntingtin aggregate-directed PET imaging tracer candidates” (Scientific Reports, 2021)
Where two headings read alike, the source gives them in different places.

Tests used:
[1] = design: method as in PMID 34351166, PMID 32662649; conditions: cited from earlier work
[2] = In vitro ARG, single concentration, WT mouse brain sections; type: binding; conditions: 0.5 nM
Description: (§1) Twenty µm-thick sections were prepared from brains of disease mouse models and WT mice or human post-mortem brain samples by using a cryostat, mounted on superfrost slides and stored at -80 °C for a maximum of 2 weeks. On the day of the experiment, slides were adapted to room temperature for 30 min and then equilibrated by immersion into assay buffer (50 mM Tris–HCl pH 7.4; 120 mM NaCl; 5 mM KCl; 2 mM CaCl2; 1 mM MgCl2) for 20 min at room temperature.
Radioligand solutions were prepared in assay buffer. Optimal radioligand concentrations were determined in advance based on signal-to-background ratio obtained in mouse or human brain tissue. The solutions were mixed in a Coplin jar (Sigma, S5516-6EA) by gently shaking at 175 rpm for 10 min at room temperature. Sections were incubated by immersion into assay buffer containing either only radioligand (total binding or TB) or radioligand plus 10 µM of unlabeled compound (non-specific binding or NSB) for 60 min at room temperature. Afterwards slides were washed three times for 10 min with ice-cold washing buffer (50 mM Tris–HCl (pH 7.4)) at 4 °C and dipped for three seconds in ice-cold distilled water to remove buffer salts. The slides were dried for 3 h at 30 °C and exposed for 96 h to a Tritium Phosphor Screen (GE Healthcare, Fuji BAS-TR 2025 E) Stored radiation energy on the screen was scanned using a Phosphorimager (GE Healthcare, Typhoon FLA 7000). Densitometric data analysis of radioligand binding was performed using the MCID Analysis 7.1 software (Interfocus Imaging Ltd.). Radioisotope concentration standards (American Radiolabeled Chemicals, ART 0123C and ART 0123B) were exposed with each specimen to enable conversion of density values into tissue-equivalent ligand concentrations (e.g., fmol/mg tissue). A standard curve was created to relate the system´s internal relative optical density measurement (ROD; an inverse logarithmic function of gray level values) to the set of standard values (e.g., isotope concentration). The standard´s isotope concentration (e.g., nCi/mg) is therefore converted into tissue-equivalent ligand concentrations (e.g., fmol/mg tissue) by referring to the radioligand´s specific activity (e.g., Ci/mmol) and including decay-correction. After phosphor screen exposure the human brain sections were stained for 4 min with 0.1% toluidine blue dye solution (Sigma-Aldrich) and rinsed twice in distilled water. To differentiate gray and white matter, the slides were decolorized with 70% ethanol (Merck) for 2–5 min followed by rinse in distilled water. Gray matter appears as gray color and white matter as bluish.

[3] = tested on: mHTT aggregates in R6/2 mice brain sections; assay: In vitro ARG, R6/2 mouse brain sections; type: binding; conditions: 4-, 8- and 12-week-old R6/2 mice
Description: as §1
Radioligand solutions were prepared in assay buffer. Optimal radioligand concentrations were determined in advance based on signal-to-background ratio obtained in mouse or human brain tissue. The solutions were mixed in a Coplin jar (Sigma, S5516-6EA) by gently shaking at 175 rpm for 10 min at room temperature. Sections were incubated by immersion into assay buffer containing either only radioligand (total binding or TB) or radioligand plus 10 µM of unlabeled compound (non-specific binding or NSB) for 60 min at room temperature. Afterwards slides were washed three times for 10 min with ice-cold washing buffer (50 mM Tris–HCl (pH 7.4)) at 4 °C and dipped for three seconds in ice-cold distilled water to remove buffer salts. […]

[4] = target: phospho-Tau tangles (AT8 antibody) (Homo sapiens, UniProt P10636); assay: HR ARG co-registration with AT8 antibody, human AD brain sections; type: binding; conditions: 10 nM CHDI-180, 10 nM CHDI-626, 0.1 nM PiB, 1 nM T808
Chain of phospho-Tau tangles (AT8 antibody) (P10636 623-695 limits assumed): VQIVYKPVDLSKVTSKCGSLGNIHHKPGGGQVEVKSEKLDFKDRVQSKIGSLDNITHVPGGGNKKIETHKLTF

Exon1-Q46 aggregates = target: T1, Exon1-Q46 aggregates (Homo sapiens, UniProt P42858, INS38QQQQQQQQQQQQQQQQQQQQQQQQQ); assay: RBA saturation binding, recombinant Exon1-Q46 aggregates
T1 construct: MBP-HTT(1-89)Q46-His(6x); MBP (N, cleaved yes); made in house; host or cells: E. coli BL21 (DE3)
T1 sequence (P42858 with tags, fused parts or gaps with the stated changes): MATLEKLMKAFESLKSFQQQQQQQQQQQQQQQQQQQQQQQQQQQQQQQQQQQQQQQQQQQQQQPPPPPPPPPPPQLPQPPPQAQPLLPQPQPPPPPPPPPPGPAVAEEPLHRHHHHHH
Description: For N-terminal tag cleavage, proteins at 30 µM in 2 mL reaction tubes were incubated with 150 µg/mL thrombin (Sigma, T4648) in 50 mM Tris (pH 8.0), 150 mM NaCl, 2 mM CaCl2 for 16 h at 37 °C.
For radioligand binding assays (RBA) (see below) and radiometric filter trap assays (RAFTA) (see below), aggregates were separated by centrifugation (5 min 16,000×g) and resuspended with assay buffer (50 mM Tris pH 8.0, 150 mM NaCl) (see Supplementary Fig. S2B). Protein concentrations always refer to the starting peptide concentrations (i.e., peptide concentration applied in the aggregation reaction before thrombin cleavage) since post-cleaved aggregates are heterogeneous and the number of peptides per aggregate is unknown.
Samples were then transferred onto a 96-well GF/B filter plate (Perkin Elmer, #6005177) using a Filtermate Harvester, aspirated by vacuum and wells washed twice with 200 µL PBS. After drying the filter plates for 1 h at 55 °C the back of the plate was sealed with aluminum cover and 30 µL of scintillation fluid (Perkin Elmer, #6013641) per well was added. The tops of the plates were sealed, and the plates were incubated for 15 min in the dark and counted in a TopCount or MicroBeta2 reader (both Perkin Elmer).
For saturation binding experiments, aggregate lysate preparation and final concentration in the assay, assay buffer, incubation times and plate processing were identical to the competition format. Radioligand was titrated up to 100 nM. Raw cpm were converted into nM using a calibration line of total added radioligand without washing and filtering (spiked onto the filter plate and dried) (e.g., X) and normalized to the concentration of protein (e.g., Y) to finally obtain […] (e.g., X/Y). Specific binding (SB) was calculated as full binding minus full competition (in the presence of excess unlabeled ligand) and a hyperbolic mono-phasic fit was applied using GraphPad Prism to determine Kd and Bmax.

[5] = tested on: mHTT aggregates in human HD brain sections; assay: ARG, human post-mortem HD frontal cortex sections; type: binding

## COc1ccc(COc2ccc3oc(-c4ccc(=O)n(C)n4)nc3c2)nc1 [CHDI-180]
[1]
  plasma, microsomal, and hepatocyte stability: acceptable
[2]; 3 month WT, CTX
  NSB: 0.6 ± 0.5 fmol/mg
  SB: 1.3 ± 1.0 fmol/mg
  TB: 1.9 ± 0.5 fmol/mg
[2]; 3 month WT, HPC
  NSB: 0.5 ± 0.6 fmol/mg
  SB: 1.6 ± 0.6 fmol/mg
  TB: 2.0 ± 0.4 fmol/mg
[2]; 3 month WT, STR
  NSB: 0.7 ± 0.6 fmol/mg
  SB: 1.1 ± 0.4 fmol/mg
  TB: 1.8 ± 0.3 fmol/mg
[2]; 6 month WT, CTX
  NSB: 0.5 ± 0.6 fmol/mg
  SB: 1.2 ± 0.5 fmol/mg
  TB: 1.8 ± 0.1 fmol/mg
[2]; 6 month WT, HPC
  NSB: 0.6 ± 0.8 fmol/mg
  SB: 1.5 ± 0.1 fmol/mg
  TB: 2.2 ± 0.7 fmol/mg
[2]; 6 month WT, STR
  NSB: 0.4 ± 0.5 fmol/mg
  SB: 1.6 ± 0.1 fmol/mg
  TB: 2.0 ± 0.6 fmol/mg
[2]; 9 month WT, CTX
  NSB: 0.1 ± 0.2 fmol/mg
  SB: 1.2 ± 0.2 fmol/mg
  TB: 1.3 ± 0.4 fmol/mg
[2]; 9 month WT, HPC
  NSB: 0.6 ± 0.8 fmol/mg
  SB: 1.1 ± 0.5 fmol/mg
  TB: 1.8 ± 0.5 fmol/mg
[2]; 9 month WT, STR
  NSB: 0.0 ± 0.0 fmol/mg
  SB: 1.6 ± 0.1 fmol/mg
  TB: 1.6 ± 0.1 fmol/mg
[2]; 12 month WT, CTX
  NSB: 0.1 ± 0.1 fmol/mg
  SB: 1.2 ± 0.2 fmol/mg
  TB: 1.3 ± 0.3 fmol/mg
[2]; 12 month WT, HPC
  NSB: 0.0 ± 0.1 fmol/mg
  SB: 1.6 ± 0.5 fmol/mg
  TB: 1.6 ± 0.4 fmol/mg
[2]; 12 month WT, STR
  NSB: 0.2 ± 0.2 fmol/mg
  SB: 1.2 ± 0.2 fmol/mg
  TB: 1.3 ± 0.0 fmol/mg
[3]
  specific binding to STR, CTX and HPC with age: age-dependent increase in specific binding
[4]
  co-registration with AT8-positive phospho-Tau immunoreactivity: did not co-register
Exon1-Q46 aggregates; representative single experiment (Fig. 2A)
  Bmax: 0.3 nmol/μmol
Exon1-Q46 aggregates; representative single experiment (Fig. 2A), read-out: Kd
  Kd: 3.2 nM
Exon1-Q46 aggregates; tritiated compound, mean ± SD, read-out: Kd Exon1-Q46
  Kd: 2.6 ± 0.9 nM
[5]; 1 nM radioligand plus cold compound
  NSB in HD brain sections: below 0.5 fmol/mg tissue
[5]; 1 nM radioligand, gray matter
  binding to frontal cortical sections from HD donors: 2.0 ± 0.4 fmol/mg tissue
[5]; 1 nM radioligand, human frontal cortex sections
  white matter binding: ≤ 0.5 fmol/mg tissue
